# Target: T1, F508del (Homo sapiens, UniProt P13569, DEL508-508)
# T1 construct: expressed in transfected cells
# Assay: Protocol 2: FRET membrane potential optical assay (VIPR), identification of correction compounds
# Format: cell-based
# Settings: F508del CFTR modulator activity; compounds of Table 1; read-out: EC30
# Summary of the method: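 Mouse NIH3T3 cells, stable F508del; cpd 16 hrs, 37° C., serum-free; pos ctrl 27° C. 16 hrs. Rinse in Krebs Ringers, dye load, then add 10 μM forskolin + 20 μM genistein with Cl^−-free (gluconate) medium; depolarization by FRET voltage dyes.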
# T1 sequence (P13569 with tags, fused parts or gaps DEL508-508): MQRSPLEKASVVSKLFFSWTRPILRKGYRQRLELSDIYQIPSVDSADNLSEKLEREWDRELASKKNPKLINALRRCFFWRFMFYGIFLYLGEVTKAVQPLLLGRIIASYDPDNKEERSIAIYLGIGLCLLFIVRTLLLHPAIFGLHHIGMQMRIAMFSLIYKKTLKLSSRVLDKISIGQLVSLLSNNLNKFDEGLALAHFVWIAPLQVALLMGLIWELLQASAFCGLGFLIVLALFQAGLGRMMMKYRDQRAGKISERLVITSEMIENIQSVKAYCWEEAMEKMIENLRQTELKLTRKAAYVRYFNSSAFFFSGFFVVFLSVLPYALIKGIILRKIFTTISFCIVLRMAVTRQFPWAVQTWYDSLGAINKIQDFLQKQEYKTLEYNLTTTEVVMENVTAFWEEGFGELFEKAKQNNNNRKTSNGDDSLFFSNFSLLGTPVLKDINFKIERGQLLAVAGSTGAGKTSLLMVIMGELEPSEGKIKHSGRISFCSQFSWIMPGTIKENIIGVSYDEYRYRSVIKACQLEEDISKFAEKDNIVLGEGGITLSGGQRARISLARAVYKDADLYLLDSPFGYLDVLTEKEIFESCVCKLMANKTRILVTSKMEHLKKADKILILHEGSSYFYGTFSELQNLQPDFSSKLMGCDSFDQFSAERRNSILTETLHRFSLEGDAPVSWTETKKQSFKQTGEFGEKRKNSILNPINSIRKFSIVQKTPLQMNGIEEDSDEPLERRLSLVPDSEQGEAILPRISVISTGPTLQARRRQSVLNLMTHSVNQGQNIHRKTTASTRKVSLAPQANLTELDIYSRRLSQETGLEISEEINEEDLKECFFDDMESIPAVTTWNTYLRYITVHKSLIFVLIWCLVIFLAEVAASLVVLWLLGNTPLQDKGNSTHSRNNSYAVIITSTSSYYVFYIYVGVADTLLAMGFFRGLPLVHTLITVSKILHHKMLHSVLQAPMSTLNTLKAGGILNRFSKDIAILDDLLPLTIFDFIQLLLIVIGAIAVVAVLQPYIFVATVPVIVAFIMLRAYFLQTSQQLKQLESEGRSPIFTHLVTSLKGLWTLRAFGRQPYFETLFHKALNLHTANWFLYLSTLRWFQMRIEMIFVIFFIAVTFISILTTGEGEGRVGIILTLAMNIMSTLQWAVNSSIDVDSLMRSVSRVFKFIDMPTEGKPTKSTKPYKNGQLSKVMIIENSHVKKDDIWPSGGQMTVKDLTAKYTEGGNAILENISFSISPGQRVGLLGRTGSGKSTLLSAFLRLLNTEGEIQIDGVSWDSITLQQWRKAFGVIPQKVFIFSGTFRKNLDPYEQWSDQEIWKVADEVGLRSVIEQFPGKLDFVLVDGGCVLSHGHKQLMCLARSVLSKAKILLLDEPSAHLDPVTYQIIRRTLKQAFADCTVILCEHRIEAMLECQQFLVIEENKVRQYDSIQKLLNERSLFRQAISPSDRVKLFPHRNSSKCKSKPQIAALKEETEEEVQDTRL
row,EC30 [nM],Compound
1,3000 to 10000,"CCOC(=O)N1CCC(Nc2cccc(S(=O)(=O)NC(=O)c3cccnc3N3CC(C)CC3(C)C)n2)CC1 (centres unmarked) [Compound 2253, ethyl 4-[[6-[[2-(2,2,4-trimethylpyrrolidin-1-yl)pyridine-3-carbonyl]sulfamoyl]-2-pyridyl]amino]piperidine-1-carboxylate]"
2,3000 to 10000,"CC1CN(c2ncccc2C(=O)NS(=O)(=O)c2cccc(N3CCN(c4cnccn4)CC3)n2)C(C)(C)C1 (centres unmarked) [Compound 2254, N—[[6-(4-pyrazin-2-ylpiperazin-1-yl)-2-pyridyl]sulfonyl]-2-(2,2,4-trimethylpyrrolidin-1-yl)pyridine-3-carboxamide]"
3,< 3000,"CC1CN(c2ncccc2C(=O)NS(=O)(=O)c2cccc(N3CCc4ccccc43)n2)C(C)(C)C1 (centres unmarked) [Compound 2255, N-[(6-indolin-1-yl-2-pyridyl)sulfonyl]-2-(2,2,4-trimethylpyrrolidin-1-yl)pyridine-3-carboxamide]"
4,< 3000,"CCOc1cc(C)cc(-c2ccc(C(=O)NS(=O)(=O)c3cccnc3N)c(N3C[C@@H](C)CC3(C)C)n2)n1 [Compound 2256, N-[(2-amino-3-pyridyl)sulfonyl]-6-(6-ethoxy-4-methyl-2-pyridyl)-2-[(4S)-2,2,4-trimethylpyrrolidin-1-yl]pyridine-3-carboxamide]"
5,< 3000,"COc1ccc2c(c1)CCN(c1cccc(S(=O)(=O)NC(=O)c3cccnc3N3CC(C)CC3(C)C)n1)C2 (centres unmarked) [Compound 2260, N—[[6-(6-methoxy-3,4-dihydro-1H-isoquinolin-2-yl)-2-pyridyl]sulfonyl]-2-(2,2,4-trimethylpyrrolidin-1-yl)pyridine-3-carboxamide]"
6,< 3000,"CC1CN(c2ncccc2C(=O)NS(=O)(=O)c2cccc(OCc3ccccc3C(F)(F)F)n2)C(C)(C)C1 (centres unmarked) [Compound 2261, N—[[6-[[2-(trifluoromethyl)phenyl]methoxy]-2-pyridyl]sulfonyl]-2-(2,2,4-trimethylpyrrolidin-1-yl)pyridine-3-carboxamide]"
7,< 3000,"CC1CN(c2ncccc2C(=O)NS(=O)(=O)c2cccc(NCCc3ccc(Cl)cc3)n2)C(C)(C)C1 (centres unmarked) [Compound 2262, N—[[6-[2-(4-chlorophenyl)ethylamino]-2-pyridyl]sulfonyl]-2-(2,2,4-trimethylpyrrolidin-1-yl)pyridine-3-carboxamide]"
8,< 3000,"Cc1nc(-c2cccc(Oc3cccc(S(=O)(=O)NC(=O)c4cccnc4N4CC(C)CC4(C)C)n3)c2)no1 (centres unmarked) [Compound 2263, N—[[6-[3-(5-methyl-1,2,4-oxadiazol-3-yl)phenoxy]-2-pyridyl]sulfonyl]-2-(2,2,4-trimethylpyrrolidin-1-yl)pyridine-3-carboxamide]"
9,< 3000,"CC1CN(c2ncccc2C(=O)NS(=O)(=O)c2cccc(OCc3cccc(Cl)c3)n2)C(C)(C)C1 (centres unmarked) [Compound 2264, N—[[6-[(3-chlorophenyl)methoxy]-2-pyridyl]sulfonyl]-2-(2,2,4-trimethylpyrrolidin-1-yl)pyridine-3-carboxamide]"
10,< 3000,"C[C@@H]1CN(c2nc3ccccc3cc2C(=O)NS(=O)(=O)c2cccc(N)n2)C(C)(C)C1 [Compound 2265, N-[(6-amino-2-pyridyl)sulfonyl]-2-[(4S)-2,2,4-trimethylpyrrolidin-1-yl]quinoline-3-carboxamide]"
11,< 3000,"CC1CN(c2ncccc2C(=O)NS(=O)(=O)c2cccc(OCc3cccc4ccccc34)n2)C(C)(C)C1 (centres unmarked) [Compound 2270, N—[[6-(1-naphthylmethoxy)-2-pyridyl]sulfonyl]-2-(2,2,4-trimethylpyrrolidin-1-yl)pyridine-3-carboxamide]"
12,< 3000,"CC1CN(c2ncccc2C(=O)NS(=O)(=O)c2cccc(OCc3ccccc3Cl)n2)C(C)(C)C1 (centres unmarked) [Compound 2273, N—[[6-[(2-chlorophenyl)methoxy]-2-pyridyl]sulfonyl]-2-(2,2,4-trimethylpyrrolidin-1-yl)pyridine-3-carboxamide]"
13,3000 to 10000,"CC1CN(c2ncccc2C(=O)NS(=O)(=O)c2cccc(Nc3cccc4cnccc34)n2)C(C)(C)C1 (centres unmarked) [Compound 2274, N—[[6-(5-isoquinolylamino)-2-pyridyl]sulfonyl]-2-(2,2,4-trimethylpyrrolidin-1-yl)pyridine-3-carboxamide]"

# The remaining lines, values behind:
row,Compound,EC30 [nM]
1,"CC1CN(c2ncccc2C(=O)NS(=O)(=O)c2cccc(OC3CCCCCC3)n2)C(C)(C)C1 (centres unmarked) [Compound 2252, N—[[6-(cycloheptoxy)-2-pyridyl]sulfonyl]-2-(2,2,4-trimethylpyrrolidin-1-yl)pyridine-3-carboxamide]",< 3000
2,"C[C@@H]1CN(c2nc(-c3ccccc3O)ccc2C(=O)NS(=O)(=O)c2cccnc2N)C(C)(C)C1 [Compound 2257, N-[(2-amino-3-pyridyl)sulfonyl]-6-(2-hydroxyphenyl)-2-[(4S)-2,2,4-trimethylpyrrolidin-1-yl]pyridine-3-carboxamide]",< 3000
3,"CC(C)COc1cc(F)cc(-c2ccc(C(=O)N(C)S(=O)(=O)c3cccc(N)n3)c(N3C[C@@H](C)CC3(C)C)n2)c1 [Compound 2258, N-[(6-amino-2-pyridyl)sulfonyl]-6-(3-fluoro-5-isobutoxy-phenyl)-N-methyl-2-[(4S)-2,2,4-trimethylpyrrolidin-1-yl]pyridine-3-carboxamide]",< 3000
4,"CC1CN(c2ncc(-c3cc(F)cc(F)c3)cc2C(=O)NS(=O)(=O)c2cccc(N)n2)C(C)(C)C1 (centres unmarked) [Compound 2259, N-[(6-amino-2-pyridyl)sulfonyl]-5-(3,5-difluorophenyl)-2-(2,2,4-trimethylpyrrolidin-1-yl)pyridine-3-carboxamide]",< 3000
5,"CC(C)COc1cccc(-c2ccc(C(=O)NS(=O)(=O)c3ccc[nH]c3=O)c(N3C[C@@H](C)CC3(C)C)n2)c1 [Compound 2267, 6-(3-isobutoxyphenyl)-N-[(2-oxo-1H-pyridin-3-yl)sulfonyl]-2-[(4S)-2,2,4-trimethylpyrrolidin-1-yl]pyridine-3-carboxamide]",< 3000
6,"COc1cccc(-c2ccc(C(=O)NS(=O)(=O)c3cccnc3N)c(N3C[C@@H](C)CC3(C)C)n2)n1 [Compound 2268, N-[(2-amino-3-pyridyl)sulfonyl]-6-(6-methoxy-2-pyridyl)-2-[(4S)-2,2,4-trimethylpyrrolidin-1-yl]pyridine-3-carboxamide]",< 3000
7,"C[C@@H]1CN(c2nc(-c3cc(F)cc(F)c3)ccc2C(=O)NS(=O)(=O)c2cccnc2N)C(C)(C)C1 [Compound 2272, N-[(2-amino-3-pyridyl)sulfonyl]-6-(3,5-difluorophenyl)-2-[(4S)-2,2,4-trimethylpyrrolidin-1-yl]pyridine-3-carboxamide]",< 3000
8,"CC1(C)C(Cc2ccccc2)CCN1c1ncccc1C(=O)NS(=O)(=O)c1cccc(N)n1 (centres unmarked) [Compound 2275, N-[(6-amino-2-pyridyl)sulfonyl]-2-(3-benzyl-2,2-dimethyl-pyrrolidin-1-yl)pyridine-3-carboxamide]",3000 to 10000
9,"Cc1ccc(-c2nc(-c3cc(F)cc(OCC(C)C)c3)ccc2C(=O)NS(=O)(=O)N2CC[C@@H](N)C2)cc1 [Compound 2276, N-[(3R)-3-aminopyrrolidin-1-yl]sulfonyl-6-(3-fluoro-5-isobutoxy-phenyl)-2-(p-tolyl)pyridine-3-carboxamide]",< 3000
10,"C[C@@H]1CN(c2nc(C3CCOC3)ccc2C(=O)NS(=O)(=O)c2ccccc2)C(C)(C)C1 (stereo partly drawn) [Compound 2277, N-(benzenesulfonyl)-6-tetrahydrofuran-3-yl-2-[(4S)-2,2,4-trimethylpyrrolidin-1-yl]pyridine-3-carboxamide]",< 3000
